Key:
breast cancer cell lines [1] = assay: Apoptosis by PI staining and FACS analysis of sub-G0/G1 DNA content; type: cell-based
Procedure: (§1) Cells from the breast cancer cell lines MDA-MB-231, BT-474, SKBR-3, and BT-20 were seeded into 96-well microculture plates at 10,000 cells per well and allowed to attach for 24 hours. Cells were then treated with 10 μM Lucanthone for 72 hours (48 hours for apoptosis assay). For immunoblotting, cells were harvested after treatment and cathepsin D levels were determined as described above. Pro-apoptotic effects following in vitro drug exposure were quantified by propidium iodide (PI) staining and fluorescence-activated cell sorting (FACS) analysis of sub-G0/G1 DNA content. Data is representative of three independent experiments.
Cells from the breast cancer cell lines MDA-MB-231, BT-474, SKBR-3, and BT-20 were seeded into 96-well microculture plates at 10,000 cells per well and allowed to attach for 24 hours. For immunoblotting, cells were then treated with 10 μM Lucanthone, 2.5 μM Vorinostat, or the combination for 72 hours, harvested, and cathepsin D levels were determined as described above. For the MTT cell viability assay, the cells were then treated with 10 μM Lucanthone, 2.5 μM Vorinostat, or the combination for 72 hours. After treatment, 3-(4,5-dimethylthiazol-2-yl)-2,5, diphenyltetrazolium bromide (MTT) was added after treatment and cell viability was quantified using a BioTek (Winooski, Vt.) microplate reader. […] Pro-apoptotic effects following in vitro drug exposure were quantified by propidium iodide (PI) staining and fluorescence-activated cell sorting (FACS) analysis of sub-G0/G1 DNA content. […]
Cells from the breast cancer cell lines MDA-MB-231 and BT-20 were seeded into 96-well microculture plates at 10,000 cells per well and allowed to attach for 24 hours. […] After treatment, 3-(4,5-dimethylthiazol-2-yl)-2,5, diphenyltetrazolium bromide (MTT) was added after treatment and cell viability was quantified using a BioTek (Winooski, Vt.) microplate reader. […] Pro-apoptotic effects following in vitro drug exposure were quantified by propidium iodide (PI) staining and fluorescence-activated cell sorting (FACS) analysis of sub-G0/G1 DNA content. […]

LC3-II, SQSTM1/p62 = assay: LC3-II formation and SQSTM1/p62 accumulation with Bafilomycin A1 (FIG. 1F); type: cell-based
[2] = system: MDA-MB-231 breast cancer cell line; assay: Lysosomal membrane permeabilization by loss of acridine orange fluorescence; type: cell-based; settings: MDA-MB-231 cells, 10 μM Lucanthone or 50 μM Chloroquine, 48 hours
Procedure: The appearance of LMP was monitored by loss of acridine orange fluorescence. Acidic lysosomes were visualized by acridine orange staining. […] Cells were washed with PBS and images were captured using an Olympus fluorescent microscope. Based on the acidity, lysosomes appeared as orange fluorescent cytoplasmic vesicles. Quantification of 5 random fields of acridine orange intensity was measured by immunofluorescence and image acquisition were performed using Image-Pro Plus software Version 6.2.1.

[3] = system: MDA-MB-231 breast cancer cell line; assay: Vacuolization by Giemsa staining and transmission electron microscopy; type: cell-based; settings: MDA-MB-231 cells, 48 hours; for accumulation of electron dense particles: 10 μM Lucanthone or 50 μM Chloroquine, transmission electron microscopy
Procedure: Increased vacuolization was visualized by Giemsa staining and transition electron microscopy. […] After drug treatment, cells were washed with PBS and fixed in methanol for 5 minutes. Cells were then incubated for 1 hour in Giemsa stain diluted 1:20 with deionized water. Cells were rinsed with water and imaged using an Olympus fluorescent microscope. Image-Pro Plus software Version 6.2.1 was used for image acquisition. Transmission electron microscopy of cells was performed using routine procedures. Sections were cut in an LKB Ultracut microtome (Leica, Deerfield, Ill.), stained with uranyl acetate and lead citrate, and examined in a JEM 1230 transmission electron microscope (JEOL, USA, Inc., Peabody, Mass.). Images were captured using the AMT Imaging System (Advanced Microscopy Techniques Corp, Danvers, Mass.).

breast cancer cell lines [4] = assay: Cell viability by MTT assay in breast cancer cell lines; type: cell-based; settings: for IC50: 72 h, read-out: mean IC50, breast cancer cell viability
Source text: (§2) Data is representative of three independent experiments.
as §2, §2

SQSTMI/p62 = SQSTMI/p62 levels and aggregation by immunoblotting and immunocytochemistry; type: cell-based; settings: MDA-MB-231 cells
Procedure: This protein is degraded by autophagy, localized to cellular inclusion bodies, and has been proposed to play a role in facilitating protein aggregate clearance by autophagy. As such, a disruption of this process would result in the accumulation of SQSTMI/p62.
(§3) Levels and aggregation of SQSTMI/p62 were determined by immunoblotting and immunocytochemistry, respectively. […] Cells were harvested and were then lysed using routine procedures. Approximately 50 μg of total cellular protein from each sample were subjected to SDS-PAGE, proteins were transferred to nitrocellulose membranes, and the membranes were blocked with 5% nonfat milk in a Tris-buffered saline solution containing 0.1% TWEEN-20 for 1 hour. The blots were then probed overnight at 4° C. with primary antibodies, washed, and probed with species-specific secondary antibodies coupled to horseradish peroxidase. Immunoreactive material was detected by enhanced chemiluminescence (West Pico, Pierce, Inc., Rockville, Ill.).

cathepsin D [5] = assay: Cathepsin D expression by immunoblotting in breast cancer cell lines; type: cell-based; settings: MDA-MB-231, BT-474, SKBR-3, BT-20 cells, 10 μM Lucanthone, 72 hours
Procedure: as §3
as §1, with “experiments. […]” for “experiments.”

cathepsin D [6] = assay: Cathepsin D accumulation in isogenic HCT116 p53 cell lines; type: cell-based; settings: HCT116 p53+1^+ and p53−1^− cell lines
Source text: (§4) Loss of function of p53 is a frequent event in human cancer that is associated with tumorigenesis and drug resistance. […] To investigated the role of p53 in Lucanthone-mediated cell death, […]

cathepsin D [7] = assay: Cathepsin D protein levels and aggregation by immunocytochemistry; type: cell-based; settings: immunocytochemistry (FIG. 3C)
[8] = system: HCT116 colorectal cancer cell lines; assay: Cell viability in isogenic HCT116 p53 cell lines; type: cell-based; settings: HCT116 p53+1^+ and p53−1^− cell lines
Source text: as §4

cathepsin D [9] = assay: Quantitative real-time PCR analysis of cathepsin D; type: cell-based; settings: MDA-MB-231 and BT-20 cells, 10 μM Lucanthone, 48 hours, standardized to GAPDH
Procedure: The lysosomal protease cathepsin D is a key mediator of apoptosis and its release into the cytosol has been reported to promote cell death. Considering this, we further evaluated the role of cathepsin D during Lucanthone-mediated cell death using quantitative real-time PCR (qRT-PCR). To perform qRT-PCR, cells from a MDA-MB-231 or a BT-20 cell lines were treated with 10 μM Lucanthone for 48 hours and then harvested for analysis. Total RNA was isolated using the RNeasy Plus Mini Kit (Qiagen, Germantown, Md.) and treated with TURBO DNAfree™ Kit (Applied Biosystems, Foster City, Calif.). First-strand cDNA synthesis was performed from 1 μg RNA in a 20 μL reaction mixture using the high-capacity cDNA Reverse Transcription Kit (Applied Biosystems, Foster City, Calif.). Cathepsin D and GAPDH transcripts were amplified using commercially available TaqMan@Gene expression assays (Applied Biosystems, Foster City, Calif.). Levels of mRNAs were standardized to the expression of GAPDH and relative gene expression was calculated with the 2^−ΔCt method.

[10] = system: MDA-MB-231 breast cancer cell line; assay: Lucanthone-induced apoptosis after cathepsin D siRNA knockdown; type: cell-based; settings: MDA-MB-231 cells, 100 nM cathepsin D siRNA vs non-target siRNA, 10 μM Lucanthone, 48 hours
Procedure: To further establish the mechanistic role of cathepsin D in Lucanthone-induced apoptosis, siRNA was used to knockdown its expression (FIG. 4C). Preparation of siRNAs Cahepsin D and non-target SMARTpool siRNA were obtained from Dharmacon (Lafayette, Colo.). Cells from a MDA-MB-231 breast cancer cell line were transfected with 100 nM of either non-target or cathepsin D siRNA using Oligofectamine (Invitrogen, Carlsbad, Calif.) according to the manufacturers protocol. Transfected cells were incubated at 37° C. for 24 hours and then treated with 10 μM Lucanthone for 48 hours. Efficiency of RNAi was measured at 48 hours by immunoblotting using an α-cathepsin D antibody. Apoptosis was determined by PI staining and flow cytometry.

[11] = system: MDA-MB-231 and BT-20 breast cancer cell lines; assay: Affymetrix expression arrays; type: cell-based, human; settings: MDA-MB-231 and BT-20 cells, 10 μM Lucanthone, 48 hours
Procedure: To further characterize the effects of Lucanthone on breast cancer cells, expression profiling was performed on breast cancer cell lines. Cells from a MDA-MB-231 and a BT-20 breast cancer cell line were treated with 10 μM Lucanthone for 48 hours. Total RNA was isolated using the RNeasy Plus Mini Kit (Qiagen, Germantown, Md.) and treated with TURBO DNA-Free™ Kit (Applied Biosystems, Foster City, Calif.). 300 ng of total RNA per sample was amplified and hybridized to […]® Human Gene 1.0 ST arrays (Affymetrix, Inc., Santa Clara, Calif.) according to the manufacturer's instructions. These arrays assay for the expression of about 28,869 well-annotated genes with 764,885 distinct probes. Affymetrix CEL files were imported into PARTEK® Genomics Suite™ 6.4 (Partek Inc., St. Louis, Mo.) using the default Partek normalization parameters and the robust multi-array average (RMA) analysis adjusted for probe sequence and GC content (GC-RMA). Data normalization was performed across all arrays using quantile normalization.

LC3-II = assay: Accumulation of LC3-II by immunocytochemistry; type: cell-based; settings: MDA-MB-231 cells, 10 μM Lucanthone, 48 hours
Procedure: Accumulation of LC3-II was visualized by immunocytochemistry. Cells from a MDA-MB-231 breast cancer cell line were plated on chamber slides and allowed to attach overnight. […] Following drug treatment, cells were fixed with 4% paraformaldehyde, permeabilized using 0.2% TRITON-X-100, and incubated overnight with indicated primary antibodies. Alexa Fluor 488 conjugated fluorescent secondary antibodies were used to visualize protein localization. Images were captured using an Olympus fluorescent microscope (Center Valley, P A) with a DP71 camera and a 60× objective. Image-Pro Plus software Version 6.2.1 (MediaCybernetics, Bethesda, Md.) was used for image acquisition.

[12] = breast cancer cell lines, FIG. 1G

SMILES | apoptosis (breast cancer cell lines [1]; [12]) | LC3-II formation (LC3-II, SQSTM1/p62) | SQSTM1/p62 accumulation (LC3-II, SQSTM1/p62) | acridine orange staining intensity of lysosomes (lysosomal acidity) [2] | accumulation of electron dense particles [3] | IC50 (breast cancer cell lines [4]) | SQSTMI/p62 levels (SQSTMI/p62; 10 μM Lucanthone, 48 hours, immunoblotting) | SQSTMI/p62 aggregation (SQSTMI/p62; immunocytochemistry) | apoptosis (breast cancer cell lines [1]; MDA-MB-231, BT-474, SKBR-3, BT-20 cells, 10 μM Lucanthone, 48 hours, PI-FACS) | cytoplasmic vacuolization ([3]; 10 μM Lucanthone, Giemsa staining) | cathepsin D levels (cathepsin D [5]) | cathepsin D accumulation (cathepsin D [6]) | cathepsin D protein levels and cytosolic aggregation (cathepsin D [7]) | cell viability [8] | cathepsin D mRNA levels (qRT-PCR) (cathepsin D [9]) | sensitivity to Lucanthone-mediated apoptosis of cells with reduced cathepsin D levels [10] | cell viability (breast cancer cell lines [4]; panel of seven breast cancer cell lines, varying concentrations, 72 hours, MTT) | genes induced: cathepsin D (CTSD), MMPI, CYPIAI (upregulated by at least 4-fold) [11] | lipid modification of LC3 into LC3-II (punctate localization to autophagosomes) (LC3-II)
CO/C1=C\C(C)=C\[C@@H](C)[C@@H](O)[C@@H](C)C/C(C)=C/C=C/[C@H](OC)[C@@H]([C@@H](C)[C@@H](O)[C@H](C)[C@@]2(O)C[C@@H](O)[C@H](C)[C@@H](C(C)C)O2)OC1=O [Bafilomycin A1] | induce apoptosis in breast cancer cell lines | induce LC3-II formation | SQSTM1/p62 accumulation | – | – | – | – | – | – | – | – | – | – | – | – | – | – | – | –
CCN(CC)CCCC(C)Nc1ccnc2cc(Cl)ccc12 (stereo not shown) [Chloroquine] | – | – | – | loss of lysosomal acidity | induced an accumulation of electron dense particles | 66 µM | – | – | – | – | – | – | – | – | – | – | – | – | –
CCN(CC)CCNc1ccc(C)c2sc3ccccc3c(=O)c12 [Lucanthone, 1-((2-(Diethylamino)ethyl)amino)-4-methylthioxanthen-9-one] | induce apoptosis in breast cancer cell lines | induce LC3-II formation | SQSTM1/p62 accumulation | decreased the red staining intensity of lysosomes | induced an accumulation of electron dense particles | 7.2 µM | strongly increased | aggregated in response to Lucanthone | induces apoptosis in four different breast cancer cell lines | induced cytoplasmic vacuolization | strongly increased | induced cathepsin D accumulation equally regardless of p53 status | dramatically increased cathepsin D protein levels and promoted its cytosolic aggregation | reduced viability to a similar extent | induced a significant increase in cathepsin D levels in both cell lines | significantly less sensitive | reduced cell viability to a similar extent in a panel of seven breast cancer cell lines | increased in both cell lines | induced lipid modification of LC3-1 into LC3-II
